Experimental data as given in patent US20120122860A1, “SOLID FORMS OF SULFONAMIDES AND AMINO ACIDS” (Plexxikon, Inc., priority 2009, published 2012).

Legend:
B-Raf = B-Raf (Homo sapiens, UniProt P15056); experiment: Kinase activity assay, B-Raf; format: biochemical; settings: read-out: activity toward kinase B-Raf, IC50
B-Raf V600E = B-Raf V600E (Homo sapiens, UniProt P15056, V600E); experiment: Kinase activity assay, B-Raf V600E; format: biochemical; settings: read-out: activity toward kinase B-Raf V600E, IC50
Kdr = Kdr (Homo sapiens, UniProt P35968); experiment: Kinase activity assay, Kdr
Kit = Kit (Homo sapiens, UniProt P10721); experiment: Kinase activity assay, Kit
C-Raf = C-Raf (Homo sapiens, UniProt P04049); experiment: Kinase activity assay, C-Raf
Src = Src (Homo sapiens, UniProt P12931); experiment: Kinase activity assay, Src

Measured: IC50

Kdr, sequence (P35968 20-1356): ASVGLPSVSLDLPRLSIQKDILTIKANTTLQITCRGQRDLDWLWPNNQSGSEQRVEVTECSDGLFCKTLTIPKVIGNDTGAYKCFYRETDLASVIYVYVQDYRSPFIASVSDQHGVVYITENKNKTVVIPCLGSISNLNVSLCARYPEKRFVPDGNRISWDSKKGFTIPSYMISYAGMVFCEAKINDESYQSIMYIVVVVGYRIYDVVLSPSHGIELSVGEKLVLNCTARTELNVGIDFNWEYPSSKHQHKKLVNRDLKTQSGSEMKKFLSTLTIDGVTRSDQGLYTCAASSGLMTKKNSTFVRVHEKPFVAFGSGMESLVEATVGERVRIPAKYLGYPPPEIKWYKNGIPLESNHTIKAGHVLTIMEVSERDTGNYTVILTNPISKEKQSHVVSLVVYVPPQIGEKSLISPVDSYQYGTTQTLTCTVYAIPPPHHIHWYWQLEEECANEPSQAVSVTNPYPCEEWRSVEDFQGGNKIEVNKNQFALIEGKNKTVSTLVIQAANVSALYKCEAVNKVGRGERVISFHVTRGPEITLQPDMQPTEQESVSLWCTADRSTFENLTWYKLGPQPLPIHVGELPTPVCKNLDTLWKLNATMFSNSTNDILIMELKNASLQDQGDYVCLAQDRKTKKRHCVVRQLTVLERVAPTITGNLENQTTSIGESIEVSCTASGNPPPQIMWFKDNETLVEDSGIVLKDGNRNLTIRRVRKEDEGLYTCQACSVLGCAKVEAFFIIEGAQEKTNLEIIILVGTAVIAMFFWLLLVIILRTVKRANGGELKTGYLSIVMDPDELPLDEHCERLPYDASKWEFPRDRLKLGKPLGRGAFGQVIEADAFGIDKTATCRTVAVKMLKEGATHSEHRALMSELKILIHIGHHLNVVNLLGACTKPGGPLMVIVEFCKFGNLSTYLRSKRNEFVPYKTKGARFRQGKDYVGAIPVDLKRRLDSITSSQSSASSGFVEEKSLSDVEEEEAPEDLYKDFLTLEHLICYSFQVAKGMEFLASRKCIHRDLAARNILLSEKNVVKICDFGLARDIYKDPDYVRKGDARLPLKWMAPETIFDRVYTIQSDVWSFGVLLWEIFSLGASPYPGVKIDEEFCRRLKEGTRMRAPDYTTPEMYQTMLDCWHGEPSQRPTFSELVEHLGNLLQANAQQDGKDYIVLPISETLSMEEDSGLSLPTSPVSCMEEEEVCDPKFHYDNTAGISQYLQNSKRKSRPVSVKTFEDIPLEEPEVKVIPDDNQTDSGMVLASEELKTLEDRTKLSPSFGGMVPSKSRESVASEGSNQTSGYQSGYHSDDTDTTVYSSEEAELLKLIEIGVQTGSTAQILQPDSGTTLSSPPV
B-Raf V600E, sequence (P15056 whole entry V600E): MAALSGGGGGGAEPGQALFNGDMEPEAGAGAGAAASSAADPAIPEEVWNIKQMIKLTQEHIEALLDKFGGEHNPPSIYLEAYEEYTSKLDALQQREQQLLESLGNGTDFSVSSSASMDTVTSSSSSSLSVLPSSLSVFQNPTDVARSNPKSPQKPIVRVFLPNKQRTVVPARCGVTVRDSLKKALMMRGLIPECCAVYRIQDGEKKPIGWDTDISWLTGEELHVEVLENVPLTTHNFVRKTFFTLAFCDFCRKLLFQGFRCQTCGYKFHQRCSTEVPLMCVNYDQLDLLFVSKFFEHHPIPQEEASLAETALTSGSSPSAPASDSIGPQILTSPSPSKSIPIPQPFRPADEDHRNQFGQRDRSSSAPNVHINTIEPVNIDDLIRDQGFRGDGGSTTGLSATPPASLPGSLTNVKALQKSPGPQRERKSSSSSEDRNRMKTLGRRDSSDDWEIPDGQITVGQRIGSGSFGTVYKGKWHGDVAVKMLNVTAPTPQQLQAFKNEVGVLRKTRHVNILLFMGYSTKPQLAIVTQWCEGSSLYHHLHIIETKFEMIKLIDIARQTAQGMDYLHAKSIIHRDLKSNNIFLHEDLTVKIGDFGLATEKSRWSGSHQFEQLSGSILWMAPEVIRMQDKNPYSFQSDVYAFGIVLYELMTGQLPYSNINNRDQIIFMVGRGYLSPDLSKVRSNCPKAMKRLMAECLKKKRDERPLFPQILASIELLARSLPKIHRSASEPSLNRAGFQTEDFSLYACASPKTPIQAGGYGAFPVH
C-Raf, sequence (P04049 whole entry): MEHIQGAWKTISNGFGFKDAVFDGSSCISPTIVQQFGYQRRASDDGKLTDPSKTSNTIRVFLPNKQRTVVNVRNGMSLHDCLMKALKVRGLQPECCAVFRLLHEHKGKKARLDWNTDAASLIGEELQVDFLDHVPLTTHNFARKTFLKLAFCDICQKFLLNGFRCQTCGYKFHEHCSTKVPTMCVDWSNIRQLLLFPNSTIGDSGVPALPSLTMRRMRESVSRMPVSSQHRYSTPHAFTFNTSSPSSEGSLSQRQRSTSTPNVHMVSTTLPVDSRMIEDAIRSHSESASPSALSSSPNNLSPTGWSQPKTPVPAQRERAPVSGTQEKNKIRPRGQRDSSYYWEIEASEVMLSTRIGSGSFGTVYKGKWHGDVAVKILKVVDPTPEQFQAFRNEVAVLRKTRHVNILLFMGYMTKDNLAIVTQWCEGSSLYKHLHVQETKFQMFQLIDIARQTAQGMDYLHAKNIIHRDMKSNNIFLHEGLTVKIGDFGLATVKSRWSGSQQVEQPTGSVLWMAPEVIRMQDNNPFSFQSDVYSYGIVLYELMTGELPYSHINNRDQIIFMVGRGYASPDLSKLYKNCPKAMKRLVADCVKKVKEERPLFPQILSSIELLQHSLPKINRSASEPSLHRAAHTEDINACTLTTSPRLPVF
B-Raf, sequence (P15056 whole entry): as the sequence (P15056 whole entry V600E) above, with E600V counted along it
Kit, sequence (P10721 26-976): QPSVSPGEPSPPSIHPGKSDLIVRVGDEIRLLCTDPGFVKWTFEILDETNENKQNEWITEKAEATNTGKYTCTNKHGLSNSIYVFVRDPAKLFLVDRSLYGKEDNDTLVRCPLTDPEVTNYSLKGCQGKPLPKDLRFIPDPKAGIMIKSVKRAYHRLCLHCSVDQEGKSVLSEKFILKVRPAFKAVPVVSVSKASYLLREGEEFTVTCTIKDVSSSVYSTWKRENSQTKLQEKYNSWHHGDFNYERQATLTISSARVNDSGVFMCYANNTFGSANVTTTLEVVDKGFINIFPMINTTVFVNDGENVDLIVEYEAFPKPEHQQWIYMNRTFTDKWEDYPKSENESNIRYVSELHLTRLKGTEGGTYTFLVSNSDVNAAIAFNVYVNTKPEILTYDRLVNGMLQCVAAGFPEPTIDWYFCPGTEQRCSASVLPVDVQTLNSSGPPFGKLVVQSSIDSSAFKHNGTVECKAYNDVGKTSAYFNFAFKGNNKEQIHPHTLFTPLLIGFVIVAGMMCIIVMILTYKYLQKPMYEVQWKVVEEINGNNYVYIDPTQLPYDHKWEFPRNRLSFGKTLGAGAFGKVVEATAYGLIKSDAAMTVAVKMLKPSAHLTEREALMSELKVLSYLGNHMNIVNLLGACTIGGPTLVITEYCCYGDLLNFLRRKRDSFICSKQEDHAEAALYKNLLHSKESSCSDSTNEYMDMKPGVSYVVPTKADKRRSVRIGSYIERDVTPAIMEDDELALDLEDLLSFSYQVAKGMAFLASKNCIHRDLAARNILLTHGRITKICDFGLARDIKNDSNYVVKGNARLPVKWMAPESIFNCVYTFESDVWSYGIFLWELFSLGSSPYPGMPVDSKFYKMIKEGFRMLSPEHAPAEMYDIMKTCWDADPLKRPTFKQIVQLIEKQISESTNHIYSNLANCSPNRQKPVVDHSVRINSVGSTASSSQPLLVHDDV
Src, sequence (P12931 whole entry): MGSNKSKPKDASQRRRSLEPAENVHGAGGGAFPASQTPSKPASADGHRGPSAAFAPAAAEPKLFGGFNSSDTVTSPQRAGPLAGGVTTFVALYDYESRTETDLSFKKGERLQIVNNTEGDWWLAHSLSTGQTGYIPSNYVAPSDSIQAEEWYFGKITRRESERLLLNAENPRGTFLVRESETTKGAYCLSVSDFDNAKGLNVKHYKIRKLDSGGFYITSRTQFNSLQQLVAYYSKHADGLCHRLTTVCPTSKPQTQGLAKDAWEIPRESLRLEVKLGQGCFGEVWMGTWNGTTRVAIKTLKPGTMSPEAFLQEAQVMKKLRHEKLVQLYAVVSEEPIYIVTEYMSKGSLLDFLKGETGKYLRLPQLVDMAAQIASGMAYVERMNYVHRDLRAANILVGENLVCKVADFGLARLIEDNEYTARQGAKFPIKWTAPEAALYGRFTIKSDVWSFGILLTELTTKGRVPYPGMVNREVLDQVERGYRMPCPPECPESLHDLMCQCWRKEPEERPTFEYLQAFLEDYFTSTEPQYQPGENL

O=C(c1cccc(NS(=O)(=O)c2ccc(C(F)(F)F)cc2)c1F)c1c[nH]c2ncc(Cl)cc12 [P-2058, N-[3-(5-Chloro-1H-pyrrolo[2,3-b]pyridine-3-carbonyl)-2-fluoro-phenyl]-4-trifluoromethyl-benzenesulfonamide]
not listed: Src
≤ 10 µM: all other assays above

Cc1cnc2[nH]cc(C(=O)c3cccc(NS(=O)(=O)c4ccc(C(F)(F)F)cc4)c3F)c2c1 [P-2059, N-[2-Fluoro-3-(5-methyl-1H-pyrrolo[2,3-b]pyridine-3-carbonyl)-phenyl]-4-trifluoromethyl-benzenesulfonamide]
not listed: Kit
≤ 10 µM: all other assays above

COc1ccnc2[nH]cc(C(=O)c3c(F)ccc(NS(=O)(=O)c4cccnc4)c3F)c12 [P-2073, Pyridine-3-sulfonic acid [2,4-difluoro-3-(4-methoxy-1H-pyrrolo[2,3-b]pyridine-3-carbonyl)-phenyl]-amide]
≤ 10 µM: B-Raf | B-Raf V600E | Src | C-Raf

N#Cc1cnc2[nH]cc(C(=O)c3c(F)ccc(NS(=O)(=O)Cc4cccnc4)c3F)c2c1 [P-2094, N-[3-(5-Cyano-1H-pyrrolo[2,3-b]pyridine-3-carbonyl)-2,4-difluoro-phenyl]-C-pyridin-3-yl-methanesulfonamide]
≤ 10 µM: B-Raf V600E | Kdr | Kit

O=C(c1cc(NS(=O)(=O)c2ccc(OC(F)(F)F)cc2)ccc1F)c1c[nH]c2ncc(Cl)cc12 [P-2109, N-[3-(5-Chloro-1H-pyrrolo[2,3-b]pyridine-3-carbonyl)-4-fluoro-phenyl]-4-trifluoromethoxy-benzenesulfonamide]
≤ 10 µM: B-Raf | Kdr | Kit

O=C(c1cccc(NS(=O)(=O)c2ccc(C(F)(F)F)cc2)c1)c1c[nH]c2ncc(Cl)cc12 [P-2126, N-[3-(5-Chloro-1H-pyrrolo[2,3-b]pyridine-3-carbonyl)-phenyl]-4-trifluoromethyl-benzenesulfonamide]
≤ 10 µM: B-Raf | Kdr | Kit

CCCS(=O)(=O)Nc1ccc(F)c(C(=O)c2c[nH]c3ncc(-c4ccc(Cl)nc4)cc23)c1F [P-2154, Propane-1-sulfonic acid {3-[5-(6-chloro-pyridin-3-yl)-1H-pyrrolo[2,3-b]pyridine-3-carbonyl]-2,4-difluoro-phenyl}-amide]
not listed: Kit
≤ 10 µM: all other assays above

CCCS(=O)(=O)Nc1ccc(F)c(C(=O)c2c[nH]c3ncc(-c4c(C)noc4C)cc23)c1F [P-2156, Propane-1-sulfonic acid {3-[5-(3,5-dimethyl-isoxazol-4-yl)-1H-pyrrolo[2,3-b]pyridine-3-carbonyl]-2,4-difluoro-phenyl}-amide]
≤ 10 µM: B-Raf V600E | Kdr | Src

CCCS(=O)(=O)Nc1ccc(F)c(C(=O)c2c[nH]c3ncc(-c4ccc(Cl)c(C(F)(F)F)c4)cc23)c1F [P-2171, Propane-1-sulfonic acid {3-[5-(4-chloro-3-trifluoromethyl-phenyl)-1H-pyrrolo[2,3-b]pyridine-3-carbonyl]-2,4-difluoro-phenyl}-amide]
≤ 10 µM: B-Raf | B-Raf V600E | Kdr | Src

CCCS(=O)(=O)Nc1ccc(F)c(C(=O)c2c[nH]c3ncc(-c4c(-c5ccccc5)noc4C)cc23)c1F [P-2191, Propane-1-sulfonic acid {2,4-difluoro-3-[5-(5-methyl-3-phenyl-isoxazol-4-yl)-1H-pyrrolo[2,3-b]pyridine-3-carbonyl]-phenyl}-amide]
≤ 10 µM: B-Raf | B-Raf V600E | Kdr | Src

CCCS(=O)(=O)Nc1ccc(F)c(C(=O)c2c[nH]c3ncc(/C=C/C(=O)OC)cc23)c1F [P-2225, (E)-3-{3-[2,6-Difluoro-3-(propane-1-sulfonylamino)-benzoyl]-1H-pyrrolo[2,3-b]pyridin-5-yl}-acrylic acid methyl ester]
not listed: Kit
≤ 10 µM: all other assays above

CCCS(=O)(=O)Nc1ccc(F)c(C(=O)c2c[nH]c3ncc(-c4ccc(S(=O)(=O)N5CCCC5)cc4)cc23)c1F [P-2227, Propane-1-sulfonic acid (2,4-difluoro-3-{5-[4-(pyrrolidine-1-sulfonyl)-phenyl]-1H-pyrrolo[2,3-b]pyridine-3-carbonyl}-phenyl)-amide]
≤ 10 µM: B-Raf | B-Raf V600E | Kdr | C-Raf

CCCS(=O)(=O)Nc1ccc(F)c(C(=O)c2c[nH]c3ncc(C(=O)N(C)C)cc23)c1F [P-2237, 3-[2,6-Difluoro-3-(propane-1-sulfonylamino)-benzoyl]-1H-pyrrolo[2,3-b]pyridine-5-carboxylic acid dimethyl amide]
≤ 10 µM: B-Raf | Kdr | Src

COc1ccnc2[nH]cc(C(=O)c3c(F)ccc(NS(=O)(=O)C(C)C)c3F)c12 [P-2280, Propane-2-sulfonic acid [2,4-difluoro-3-(4-methoxy-1H-pyrrolo[2,3-b]pyridine-3-carbonyl)-phenyl]-amide]
not listed: Kit
≤ 10 µM: all other assays above

CCS(=O)(=O)Nc1ccc(F)c(C(=O)c2c[nH]c3ncc(C#N)cc23)c1F [P-2281, Ethanesulfonic acid [3-(5-cyano-1H-pyrrolo[2,3-b]pyridine-3-carbonyl)-2,4-difluoro-phenyl]-amide]
≤ 10 µM: B-Raf | B-Raf V600E | Kdr | C-Raf

COc1ccnc2[nH]cc(C(=O)c3c(F)ccc(NS(C)(=O)=O)c3F)c12 [P-2293, N-[2,4-Difluoro-3-(4-methoxy-1H-pyrrolo[2,3-b]pyridine-3-carbonyl)-phenyl]-methanesulfonamide]
≤ 10 µM: B-Raf V600E | Kdr | Kit | C-Raf

COc1ccnc2[nH]cc(C(=O)c3c(F)ccc(NS(=O)(=O)CC(F)(F)F)c3F)c12 [P-2340, 2,2,2-Trifluoro-ethanesulfonic acid [2,4-difluoro-3-(4-methoxy-1H-pyrrolo[2,3-b]pyridine-3-carbonyl)-phenyl]-amide]
≤ 10 µM: B-Raf | B-Raf V600E | Src | C-Raf

CCCS(=O)(=O)Nc1cccc(C(=O)c2c[nH]c3ncc(C)cc23)c1F [P-2403, Propane-1-sulfonic acid [2-fluoro-3-(5-methyl-1H-pyrrolo[2,3-b]pyridine-3-carbonyl)-phenyl]-amide]
≤ 10 µM: B-Raf | B-Raf V600E | Kdr | C-Raf

CCCS(=O)(=O)Nc1cccc(C(=O)c2c[nH]c3nccc(C#N)c23)c1F [P-2409, Propane-1-sulfonic acid [3-(4-cyano-1H-pyrrolo[2,3-b]pyridine-3-carbonyl)-2-fluoro-phenyl]-amide]
≤ 10 µM: B-Raf | B-Raf V600E | Kdr | C-Raf

CCC(C)S(=O)(=O)Nc1cccc(C(=O)c2c[nH]c3ncc(C#N)cc23)c1F (centres unmarked) [P-2413, Butane-2-sulfonic acid [3-(5-cyano-1H-pyrrolo[2,3-b]pyridine-3-carbonyl)-2-fluoro-phenyl]-amide]
≤ 10 µM: B-Raf | B-Raf V600E | C-Raf

N#Cc1cnc2[nH]cc(C(=O)c3cccc(NS(=O)(=O)CCC(F)(F)F)c3F)c2c1 [P-2415, 3,3,3-Trifluoro-propane-1-sulfonic acid [3-(5-cyano-1H-pyrrolo[2,3-b]pyridine-3-carbonyl)-2-fluoro-phenyl]-amide]
≤ 10 µM: B-Raf | B-Raf V600E | C-Raf

N#Cc1cnc2[nH]cc(C(=O)c3cccc(NS(=O)(=O)C4CCCCC4)c3F)c2c1 [P-2416, Cyclohexanesulfonic acid [3-(5-cyano-1H-pyrrolo[2,3-b]pyridine-3-carbonyl)-2-fluoro-phenyl]-amide]
≤ 10 µM: B-Raf | B-Raf V600E | C-Raf

N#Cc1cnc2[nH]cc(C(=O)c3cccc(NS(=O)(=O)C4CCC4)c3F)c2c1 [P-2418, Cyclobutanesulfonic acid [3-(5-cyano-1H-pyrrolo[2,3-b]pyridine-3-carbonyl)-2-fluoro-phenyl]-amide]
≤ 10 µM: B-Raf | B-Raf V600E | C-Raf

CN(C)S(=O)(=O)Nc1cccc(C(=O)c2c[nH]c3ncc(C#N)cc23)c1F [P-2419, N,N-dimethylamino-sulfonic acid [3-(5-cyano-1H-pyrrolo[2,3-b]pyridine-3-carbonyl)-2-fluoro-phenyl]-amide]
≤ 10 µM: B-Raf V600E | Kit

COc1ncc(-c2cnc3[nH]cc(C(=O)c4cccc(NS(=O)(=O)N5CCCC5)c4F)c3c2)cn1 [P-2422, Pyrrolidine-1-sulfonic acid {2-fluoro-3-[5-(2-methoxy-pyrimidin-5-yl)-1H-pyrrolo[2,3-b]pyridine-3-carbonyl]-phenyl}-amide]
≤ 10 µM: B-Raf | B-Raf V600E | Kdr | C-Raf

O=C(c1c(F)ccc(NS(=O)(=O)c2ccc(C(F)(F)F)nc2)c1F)c1c[nH]c2ncc(Cl)cc12 [P-2481, 6-Trifluoromethyl-pyridine-3-sulfonic acid [3-(5-chloro-1H-pyrrolo[2,3-b]pyridine-3-carbonyl)-2,4-difluoro-phenyl]-amide]
≤ 10 µM: B-Raf | Kdr | Src | C-Raf
